Consider three compounds from patent US20130017163A1, “HALOGENATED PHENOLS FOR DIAGNOSTICS, ANTIOXIDANT PROTECTION AND DRUG DELIVERY” (priority 2011, published 2013).

Series [1] in a line: Cleavage of C—C bond during oxidative dehalogenation reaction. Type of series: physicochemical. Conditions: oxidative or free radical-mediated dehalogenation. The text has this:
It has also been discovered that other types of bonds or linkages may also be cleaved by oxidative or free radical-mediated dehalogenation of the phenol ring. For example, as described herein, it has now been observed that a carbonyl linkage, a nitrogen linkage, a sulfinyl linkage and possibly a C—C bond on the phenol ring may also be cleaved by the oxidative dehalogenation reaction. These bonds are also considered stable, and their cleavage in connection with the dehalogenation reaction is surprising as well. One caveat with the C—C bond or linkage is that depending on the particular starting compound structure and the substituents or groups attached to the halogenated phenol ring via the C—C bond, the C—C bond or linkage may or may not be generally cleaved during or following the dehalogenation reaction (see below). […] However, other compounds do become cleaved. It is important to note that whether a C—C bond of a particular starting compound is “cleavable,” or becomes cleaved, may not be all-or-nothing (i.e., the C—C bond may be considered non-cleavable even though a small or minute amount of cleavage may occur, and vice versa). Thus, the amount or percentage of cleavage may be partial with the alternatively cleaved or non-cleaved product being possibly undetected or minute. […]

Series [2] is described as follows: Spontaneous ether cleavage and deiodination in buffered aqueous solution exposed to sunlight. The format is physicochemical. Conditions: about 1 mM in carbonate buffer (pH 8.0), sunlight for about one hour. The text has this: In contrast to reductive deiodination, spontaneous dehalogenation (e.g., deiodination) of a halogentated phenol ring in the presence of an oxidizing agent(s) and/or free radical(s) with cleavage of a chemical linkage, such as an ether linkage, etc., between the phenol ring and a conjugated compound has not been described. According to the present invention, cleavage of the ether linkage between the aromatic rings of thyroid hormone may form visibly colored quinone and iodine-containing products in buffered aqueous solutions in vitro, and this ether cleavage reaction may be accelerated under basic pH conditions and with exposure to ionizing radiation or light. These conditions favor the increased formation of oxidizing agents and/or free radicals, which are believed to promote the reaction. […] A quinone and an iodotyrosine product are also formed by cleavage of the ether linkage during the reaction. According to embodiments of the present invention, a spontaneous reaction of dehalogenation and cleavage of a chemical bond is proposed for the targeted delivery and release of a drug compound at or to sites of inflammation or disease. This spontaneous reaction is further proposed as a basis for scavenging free radicals and/or oxidative agents (FROS) as well as for the creation of a detectable compound(s) that may be used for diagnostic purposes.

Series [3] deals with spontaneous tumors. Conditions: 10 mg by gavage; X-ray imaging about two hours after; mice with spontaneous tumors; same mice before treatment showed no foci. The text has this:
As described above, oxidative foci or tumors may be identified by X-ray radiographic imaging of animals following administration of an indigogenic compound of the present invention. The radio-opaque indigo-like product formed and deposited with residence time in FROS-containing tumor tissues may then be detected.
In this example, female C3H/HeN mice were obtained as multiparous retired breeders (i.e., after 3 to 4 litters) that were positive for a mammary tumor virus. See, e.g., Sellitti, D. F., Tseng, Y-C., and Latham, K. R., “Effect of 3,5,3′-Triiodo-L-thyronine on the Incidence and Growth Kinetics of Spontaneous Mammary Tumors in C3H/HeN Mice,” Cancer Research, 41: 5015-19 (1981), the entire contents and disclosure of which are incorporated herein by reference. Mice showing spontaneous tumors were given 10 mg of 5-Iodo-Indoxyl-3′,5′-Diiodo-4′-hydroxy ether substrate (product of Example 4) by gavage. These mice were then subjected to X-ray imaging of the tumors about two hours after being fed the iodo-indigogenic compound. […] When developed, the X-ray film appears dark in areas where more transmission occurs and light in areas where less transmission occurs.

Series [4] concerns sites of the wound or injury. The settings on record: mice with small injuries or wounds (cuts, scratches); data not shown.

In the case of `N[C@@H](Cc1ccc(O)c(I)c1)C(=O)O` [MIT, 3-iodo-4-hydroxy-L-phenylalanine], the “cleavage of C—C bond with the dehalogenation reaction” value in series [1] was “generally not to be cleaved”.
As to `N[C@@H](Cc1cc(I)c(Oc2cc(I)c(O)c(I)c2)c(I)c1)C(=O)O` [thyroxine], the “cleavage of ether linkage with iodide release” value in series [2] was “the ether linkage is broken spontaneously”.
Turning to `Oc1c(I)cc(Oc2c[nH]c3ccc(I)cc23)cc1I` [Example 4, 5-Iodo-Indolyl-3′,5′-Diiodo-4′-hydroxyl-p-Phenol Ether], the “radio-opaque tumor regions or foci by X-ray” value in series [3] is listed as “radio-opaque tumor regions or foci”. Besides, the “X-ray detection at sites of wound or injury” value in series [4] is recorded as “strong detection was observed at the sites of the wound or injury”.
